Where two headings read alike, the source gives them in different places.
Tested on: G. stearothermophilus spores
Conditions: for Average Log Reduction: nominal 0.35 ppm H2O2, blades exposed serially; for Average Log Reduction / AVERAGE LOG REDUCTION: [H2O2] average, low; for AVERAGE LOG REDUCTION: nominal 0.6 ppm H2O2 vapor from urea complex, 6×10^4 spores per blade
Experimental: Stainless steel scalpel blades were inoculated with 10 μL of inoculum containing 6×10^4 spores. The inoculum was then dried on the blade surface. Nine inoculated blades where placed in a 1 ft^3 sealed chamber constructed of acrylic. In the chamber a urea complex was confined in a glass tube with a flow restriction that allowed the concentration of peroxide in the chamber to be controlled. Three identically-inoculated blades where placed inside a covered petrie dish and placed near the chamber to serve as controls. At three day intervals, three blades were retrieved from the chamber as well as one control. These blades were subjected to a standard recovery, plating and incubation procedure from which the viable spore count and log reduction could be determined.

OO [hydrogen peroxide]
Average Log Reduction (after 3 days exposure, high 0.35, 0.2, 0.5 ppm): 1.12
Average Log Reduction (after 7 days exposure, high 0.30, 0.2, 0.5 ppm): 1.83
Average Log Reduction (after 9 days exposure, high 0.39, 0.2, 0.6 ppm): ≧4.0
AVERAGE LOG REDUCTION (after 3 days exposure, high 0.56, 0.40, 0.83 ppm): 1.5
AVERAGE LOG REDUCTION (after 6 days exposure, high 0.66, 0.40, 0.83 ppm): 2.7
AVERAGE LOG REDUCTION (after 9 days exposure, high 0.66, 0.40, 0.95 ppm): ≧4.8
log reduction in G. stearothermophilus spores per day (nominal concentration of 0.6 ppm of hydrogen peroxide, from Table 1): ~0.5

Source: patent publication US20090263499A1, “AREA DECON[…] LOW-LEVEL CONCENTRATION OF […]” (Ethicon, Inc., priority 2008, published 2009)
